Measured values from patent US20060069132A1, “Azolecarboxamide herbicides” (priority 2004, published 2006).

Assays:
rice = assay: Test B flooded paddy test; assay type: in vivo, Oryza sativa; settings: 1000 g ai/ha, visual rating, scale 0 to 100 (0 no effect, 100 complete control), 13 to 15 days
Procedure, shortened: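 Visual ratings, 0 (no effect) to 100 (complete control), made versus controls after 13–15 d greenhouse. Paddy plants treated at 2-leaf stage; postemergence plants at 1- to 4-leaf stage, 2–18 cm tall.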

pigweed = assay: Test B pre-/postemergence herbicide test; assay type: in vivo, Amaranthus retroflexus
Procedure, shortened: (§1)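 Seeds were planted and treated preemergence with compounds formulated in a non-phytotoxic solvent mixture containing surfactant, while plants at the 1- to 4-leaf stage (2 to 18 cm) received postemergence sprays. Flooded paddy plants were grown to the 2-leaf stage. After 13 to 15 days in a greenhouse, injury was visually rated 0–100 against untreated controls.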

giant foxtail = assay: Test B pre-/postemergence herbicide test; assay type: in vivo, Setaria faberi
Procedure, shortened: as §1

[1] = test system: small flower umbrella sedge; assay: Test B flooded paddy test; assay type: in vivo, Cyperus difformis; settings: 1000 g ai/ha, visual rating, scale 0 to 100 (0 no effect, 100 complete control), 13 to 15 days
Procedure, shortened: (§2)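 Paddy species grown to the 2-leaf stage under flooding; blackgrass sprayed postemergence at 2–18 cm (1- to 4-leaf stage). Plants kept in a greenhouse for 13 to 15 days, then visually rated against controls on 0 (no effect) to 100 (complete control).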

lambsquarters = assay: Test B pre-/postemergence herbicide test; assay type: in vivo, Chenopodium album
Procedure, shortened: as §1

Surinam grass = assay: Test B pre-/postemergence herbicide test; assay type: in vivo, Urochloa decumbens
Procedure, shortened: as §1

velvetleaf = assay: Test B pre-/postemergence herbicide test; assay type: in vivo, Abutilon theophrasti
Procedure, shortened: as §1

large crabgrass = assay: Test B pre-/postemergence herbicide test; assay type: in vivo, Digitaria sanguinalis
Procedure, shortened: as §1

blackgrass = assay: Test B postemergence herbicide test; assay type: in vivo, Alopecurus myosuroides; settings: scale 0 (no effect) to 100 (complete control)
Procedure, shortened: as §2

corn = assay: Test B pre-/postemergence herbicide test; assay type: in vivo, Zea mays
Procedure, shortened: as §1

cocklebur = assay: Test B pre-/postemergence herbicide test; assay type: in vivo, Xanthium strumarium
Procedure, shortened: (§3)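 Test chemicals in a non-phytotoxic solvent mixture with surfactant were applied preemergence to seeded species and postemergence to plants 2-18 cm tall (1- to 4-leaf stage); rice and barnyardgrass were also tested in a flooded paddy at the 2-leaf stage. Visual rating versus controls after 13-15 days in greenhouse, scale 0 (no effect) to 100 (complete control).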

wild oat = assay: Test B postemergence herbicide test; assay type: in vivo, Avena fatua; settings: scale 0 (no effect) to 100 (complete control)
Procedure, shortened: (§4)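 Greenhouse test; postemergence application to plants at 1–4 leaves (2–18 cm); paddy species at 2 leaves; evaluated visually vs controls at 13–15 days; scale 0–100 (100 = complete control).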

morningglory = assay: Test B pre-/postemergence herbicide test; assay type: in vivo, Ipomoea coccinea
Procedure, shortened: as §3

wheat = assay: Test B postemergence herbicide test; assay type: in vivo, Triticum aestivum; design: key to Wheat plant response rating: 0 = no effect, 100 = complete control; settings: scale 0 (no effect) to 100 (complete control)
Procedure, shortened: as §4

barnyardgrass = assay: Test B flooded paddy test; assay type: in vivo, Echinochloa crus-galli; settings: 1000 g ai/ha, visual rating, scale 0 to 100 (0 no effect, 100 complete control), 13 to 15 days
Procedure, shortened: as §2

[2] = Postemergence, 500 g ai/ha, visual rating after 13 to 15 days, scale 0 (no effect) to 100 (complete control)
[3] = postemergence, 125 g ai/ha, visual rating, scale 0 (no effect) to 100 (complete control)
[4] = preemergence, 125 g ai/ha, 0 to 100 scale, 0 is no effect, 100 is complete control
[5] = Preemergence, 500 g ai/ha, scale 0 to 100
[6] = Postemergence, 500 g ai/ha, visual rating after 13 to 15 days
[7] = postemergence, 125 g ai/ha, visual rating

Compound: CCn1nc(C(C)(C)C)cc1C(=O)Nc1cccc(C(=O)NOC)c1 [Compound 67]
- Rice plant response rating (rice): 60
- Plant response rating, Pigweed (pigweed; [2]): 20
- Pigweed plant response rating (pigweed; [3]): 0
- Plant response rating, Pigweed (pigweed; [4]): 0
- Plant response rating, Foxtail, Giant (giant foxtail; [2]): 10
- Foxtail, Giant plant response rating (giant foxtail; [5]): 10
- Foxtail, Giant plant response rating (giant foxtail; [3]): 10
- Plant response rating, Foxtail, Giant (giant foxtail; [4]): 0
- Sedge, Umbrella plant response rating [1]: 80
- Plant response rating, Lambsquarters (lambsquarters; [2]): 60
- Lambsquarters plant response rating (lambsquarters; [3]): 40
- Plant response rating, Lambsquarters (lambsquarters; [4]): 0
- Plant response rating, Surinam Grass (Surinam grass; [2]): 10
- Surinam Grass plant response rating (Surinam grass; [3]): 10
- Plant response rating, Surinam Grass (Surinam grass; [4]): 0
- Plant response rating, Velvetleaf (velvetleaf; [2]): 10
- Velvetleaf plant response rating (velvetleaf; [3]): 10
- Plant response rating, Velvetleaf (velvetleaf; [4]): 0
- Plant response rating, Crabgrass, Large (large crabgrass; [2]): 10
- Crabgrass, Large plant response rating (large crabgrass; [5]): 20
- Crabgrass, Large plant response rating (large crabgrass; [3]): 10
- Plant response rating, Crabgrass, Large (large crabgrass; [4]): 0
- Plant response rating, Blackgrass (blackgrass; [6]): 10
- Blackgrass plant response rating (blackgrass; [7]): 10
- Plant response rating, Corn (corn; [2]): 10
- Corn plant response rating (corn; [3]): 10
- Plant response rating, Corn (corn; [4]): 0
- Plant response rating, Cocklebur (cocklebur; [2]): 70
- Cocklebur plant response rating (cocklebur; [5]): 0
- Cocklebur plant response rating (cocklebur; [3]): 0
- Plant response rating, Cocklebur (cocklebur; [4]): 0
- Plant response rating, Oat, Wild (wild oat; [6]): 30
- Oat, Wild plant response rating (wild oat; [7]): 10
- Plant response rating, Morningglory (morningglory; [2]): 10
- Morningglory plant response rating (morningglory; [3]): 0
- Plant response rating, Morningglory (morningglory; [4]): 0
- Plant response rating, Wheat (wheat; [6]): 10
- Wheat plant response rating (wheat; [7]): 10
- Barnyardgrass plant response rating (barnyardgrass): 60
